From patent US20190134120A1, “METHODS FOR THE TREATMENT OF BLADDER CANCER” (Viralytics Limited, priority 2013, published 2019)

Key:
[1] = type: physicochemical, Human; conditions: 3x10^6 TCID50; 37 C for one hour in healthy donor urine
Protocol: (§1) Human cancer bladder tissue was disaggregated and primary tumour cells were isolated. These were tested for bladder tumour markers (Cytokeratin 7) (data not shown). Primary tumour cells were infected at varying MOIs and incubated at 37 C for 72 hours then photographed and analysed by MTS ([3-(4,5-dimethylthiazol-2-yl)-5-(3-carboxymethoxyphenyl)-2-(4-sulfophenyl)-2H-tetrazolium, inner salt) assay. (A) CVA21 MOI 3. (B) Uninfected cells. (C) MTS assay. (D) CVA21 (3×10^6 TCID50) was incubated at 37 C for one hour in healthy donor urine. Resulting virus was titrated by TCID50 on SK-MEL-28 cells for 5 days.
In brief, SK-MEL-28 cells were plated at 1×10^4 cells per well (100 μL) of a 96 well tray in 10% DMEM and incubate at 37° C. o/n. 37.5 ul of stock CVA21 virus (7.75e7 TCID50/ml) was added 462.5 ul of normal health urine or Hanks or PBS or HANKS for 1 hrs at 37° C. After which urine/CVA21 was serially diluted 1:10 in 2% DMEM. The media was removed from the cells and 100 ul of each dilution was added to one of ten wells. The assay was then incubated at 37° C. for 5 days, after which the media was removed from the cells and 100 ul of 0.1% Glutaldehyde (Sigma) in PBS was added. […]. TCID50 is calculated by the Spearman & Kärber algorithm as described in Hierholzer & Killington (1996), Virology Methods Manual, p. […]

[2] = system: late stage melanoma patients; conditions: Phase I, intratumorally administered, cited from earlier work
KU19-19 cells = experiment: CVA21 cytotoxicity, KU19-19 cells; type: cell-based, Human; conditions: FIG. 2b
[3] = system: bladder cancer cell lines; experiment: Combination of CVA21 and chemotherapy on cell proliferation, combination index (CalcuSyn); type: cell-based, Human; conditions: for combination index values: fixed ratio design
Protocol: FIG. 2 c): The effect of the combination of CVA21 and chemotherapy on cell proliferation was assessed by calculating combination index (CI) values using CalcuSyn software (Biosoft).
Combining CVA21 with the chemotherapy agents Mitomycin C and Gemcitabine has shown surprising synergy. […] Preliminary data using the same method has found from the 50% to the 75% effect levels, combination index values of 0.69-0.83 with Gemcitabine (FIG. 2b). In brief, 5637/T24/TCCSUP-1 cells were plated at 1×10^4 cells per well (100 μL) of a 96 well tray and incubated at 37° C. for 24 hrs. Mitomycin C was diluted in 10% FCS medium in doubling dilutions from between 2.8 to 0.02 ug/ml for 5637 cells and between 3.36 to 0.03 ug/ml for T24 cells. CVA21 was then diluted between MOI 25-0.196 in doubling dilutions using each dilution of Mitomycin C. The cells were then treated with each dilution of CVA21/Mitomycin C and incubated for 72 hrs. The medium was removed and 100 μl of diluted MTS reagent (Promega) was added. The plates were then incubated for 1-4 hrs and absorbance read at 492 nm.

[4] = system: human bladder tumor tissue; experiment: Ex vivo infection of human bladder tumour tissue by CVA21 (immunostaining); conditions: 3.875x10^6 TCID50 CVA21; 48 hours post infection
Protocol: Primary bladder cancer tissue was received from the operating theatre of the Royal Surrey County Hospital UK in a dry pot. The tissue was cut into small pieces of between 2-4 mm and placed in 0.5 ml 10% FCS/DMEM with Pen/Strep and GLUT containing 3.875×10^6 TCID50 of CVA21. The infected tissue was incubated at 37° C., 5% CO2 for 48 hrs. Tissue was then fixed in 10% neutral buffered formalin for 18-24 hours.
Tissue pieces originating from the same human bladder tumour were either infected with CVA21 or left uninfected. Immunofluorescence and immunostaining for coxsackievirus was performed 48 hours post infection.
In brief, bladder cancer tissue was fixed using 10% neutral buffered formalin for 18-24 hours. After fixation, the tissue block was embedded in paraffin, and 4 μm sections cut and affixed onto slides. The sections were dried overnight at 37° C., deparaffinized, and rehydrated. Endogenous peroxidase was blocked using methanol/0.3% H202 for 20 min. The sections were then subjected to heat mediated antigen retrieval in a microwave using citrate buffer (10 mM, pH 6.0). Following washing, the slides were blocked with 2.5% horse serum and endogenous biotin blocked using an Avidin/Biotin blocking kit (SP-2001, VectorLabs) according to the manufacturer's instructions. […]

VMCUB-1 cells = experiment: CVA21 cytotoxicity, VMCUB-1 cells; type: cell-based, Human; conditions: FIG. 2b
[5] = system: Patient derived bladder tumour cell line; experiment: Infection of patient derived primary bladder tumour cells with CVA21; type: cell-based, Human; conditions: varying MOIs; 72 hours; MTS
Protocol: as §1

For Coxsackievirus A21 [CVA21], the “stability in human urine” value [1] is given as “stable”, the tolerability ([2]; humans) is given as “well tolerated” and the “patients with stabilization or reduction in injected tumour volumes” value ([2]; late stage melanoma) is given as 55.55%. For the same substance, the “susceptibility of cell line to CVA21” value (KU19-19 cells) was “resistant”, the “synergy with sequential dosing” value ([3]; CVA21 administered 4 hours after MMC, compared with concomitant dosing) was “synergy is well maintained” and the combination index values ([3]; CVA21 with Gemcitabine, from the 50% to the 75% effect levels, preliminary data) was 0.69-0.83. The combination index values ([3]; CVA21 with Mitomycin C, from the 50% to the 90% effect levels) was 0.40-0.55, the “infectability of ex-vivo tumour tissue” value [4] was “highly infectable” and the “susceptibility of cell line to CVA21” value (VMCUB-1 cells) was “resistant”. For the same substance, the “infectability of primary tumour cells” value [5] was “highly infectable”.
